Reference: ChEMBL document CHEMBL3217565, “Conformational effects on potency of thioimidazoles and dihydrothiazolines” (Medchemcomm, 2011)

Assays:
[1] = biological target: T1, Mitogen-activated protein kinase 14 (Homo sapiens, UniProt Q16539); assay: Ratio of SB203580 IC50 to compound IC50 for p38-alpha MAPK (unknown origin)
[2] = biological target: T1, Mitogen-activated protein kinase 14; assay: Inhibition of p38-alpha MAPK (unknown origin) after 3 hrs

T1 sequence (Q16539 whole entry): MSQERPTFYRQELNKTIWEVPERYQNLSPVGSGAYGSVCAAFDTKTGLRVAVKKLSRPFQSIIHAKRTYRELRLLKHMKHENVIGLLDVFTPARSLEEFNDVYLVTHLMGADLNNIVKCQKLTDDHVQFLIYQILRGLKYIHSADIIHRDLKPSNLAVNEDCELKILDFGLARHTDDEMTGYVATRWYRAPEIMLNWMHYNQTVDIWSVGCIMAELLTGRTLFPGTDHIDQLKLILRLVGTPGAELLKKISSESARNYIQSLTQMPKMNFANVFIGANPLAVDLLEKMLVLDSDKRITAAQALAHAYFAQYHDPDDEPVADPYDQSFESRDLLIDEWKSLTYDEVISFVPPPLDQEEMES

Ratio IC50 [1]	IC50 [2] [nM]	SMILES
3.55	–	CSc1nc(-c2ccc(F)cc2)c(-c2ccnc(NC(=O)Cc3ccc(F)cc3)c2)[nH]1
1.93	46	O=C(Cc1ccc(F)cc1)Nc1cc(-c2c(-c3ccc(F)cc3)nc3n2CCS3)ccn1
0.16	396	CSc1nc(-c2ccc(F)cc2)c(-c2ccnc(NC(=O)c3ccc(F)cc3)c2)n1C
1.46	–	CSc1nc(-c2ccc(F)cc2)c(-c2ccnc(NC(=O)c3ccco3)c2)[nH]1
0.97	46	O=C(Cc1ccccc1)Nc1cc(-c2c(-c3ccc(F)cc3)nc3n2CCS3)ccn1
1.85	20	CSc1nc(-c2ccc(F)cc2)c(-c2ccnc(NC(=O)C3CC3c3ccccc3)c2)[nH]1 (stereo not drawn)
1.36	19	CSc1nc(-c2ccc(F)cc2)c(-c2ccnc(NC(=O)c3ccccc3)c2)[nH]1
0.24	–	CSc1nc(-c2ccc(F)cc2)c(-c2ccnc(NC(=O)Cc3ccc(F)cc3)c2)n1C
0.61	44	CSc1nc(-c2ccc(F)cc2)c(-c2ccnc(NC(=O)c3ccc(F)cc3)c2)[nH]1
0.77	115	O=C(Nc1cc(-c2c(-c3ccc(F)cc3)nc3n2CCS3)ccn1)c1cc2ccccc2o1
0.63	140	O=C(Nc1cc(-c2c(-c3ccc(F)cc3)nc3n2CCS3)ccn1)c1ccco1
0.35	173	CSc1nc(-c2ccc(F)cc2)c(-c2ccnc(NC(=O)c3ccco3)c2)n1C
0.18	337	CSc1nc(-c2ccc(F)cc2)c(-c2ccnc(NC(=O)c3ccccc3)c2)n1C
0.1	411	CSc1nc(-c2ccc(F)cc2)c(-c2ccnc(NC(=O)c3ccc(C)c(F)c3)c2)n1C
0.05	498	CSc1nc(-c2ccc(F)cc2)c(-c2ccnc(NC(=O)Cc3ccccc3)c2)n1C
0.22	186	CSc1nc(-c2ccc(F)cc2)c(-c2ccnc(NC(=O)C3CC3c3ccccc3)c2)n1C (stereo not drawn)
1.23	22	CSc1nc(-c2ccc(F)cc2)c(-c2ccnc(NC(=O)Cc3ccccc3)c2)[nH]1
0.96	29	Cc1ccc(C(=O)Nc2cc(-c3c(-c4ccc(F)cc4)nc4n3CCS4)ccn2)cc1F
1.93	–	CSc1nc(-c2ccc(F)cc2)c(-c2ccnc(NC(=O)c3ccc(C)c(F)c3)c2)[nH]1
0.1	430	CSc1nc(-c2ccc(F)cc2)c(-c2ccnc(NC(=O)c3cc4ccccc4o3)c2)n1C
1.44	36	O=C(Nc1cc(-c2c(-c3ccc(F)cc3)nc3n2CCS3)ccn1)c1ccc(F)cc1
0.7	–	CSc1nc(-c2ccc(F)cc2)c(-c2ccnc(NC(=O)c3cc4ccccc4o3)c2)[nH]1
1.4	20	O=C(Nc1cc(-c2c(-c3ccc(F)cc3)nc3n2CCS3)ccn1)C1CC1c1ccccc1 (stereo not drawn)
0.89	83	O=C(Nc1cc(-c2c(-c3ccc(F)cc3)nc3n2CCS3)ccn1)c1ccccc1
